Reference: US20090099174A1, “COMBINATION 059” (ASTRAZENECA AB, priority 2007, published 2009)

Assays:
A2058 cell line = assay: 96-hour MTS viable cell number assay, A2058 cell line (monotherapy and concurrent combination); assay type: cell-based; conditions: Homo sapiens, 96-hour viable cell number endpoint by MTS, read-out: IC50 monotherapy (Geomean)
Description: The objective of this assay was to determine the in-vitro combination interaction when combining AZD6244 or 2-(2-fluoro-4-iodophenylamino)-N-(2-hydroxyethoxy)-1,5-dimethyl-6-oxo-1,6-dihydropyridine-3-carboxamide concurrently with Compound A or Rapamycin in the A2058, NCI-H727, Calu-6, NCI-H2291, NCI-H23, A549 and NCI-H460 cell lines using a 96-hour viable cell number endpoint (MTS).
The A2058 cell line was routinely cultured and assayed in DMEM (phenol red free)+10% Foetal Calf Serum (FCS)+1% glutamine. The A2058 cell line is wild type for HRAS, KRAS and NRAS and mutant for the BRAF V600E mutation.
MTS viable cell number assays were carried out to determine seeding densities required for 96 hours of exponential growth. Cells were seeded into 96-well plates at their pre-determined seeding density allowing for log phase growth. After 4-hours cells were dosed with monotherapy AZD6244, 2-(2-fluoro-4-iodophenylamino)-N-(2-hydroxyethoxy)-1,5-dimethyl-6-oxo-1,6-dihydropyridine-3-carboxamide, Compound A, or Rapamycin using the Hydra/ECHO 550 platform. Following incubation with compound for 96-hours viable cell number was determined using an MTS viable cell number (Promega™) endpoint.
Concurrent combination: Cells were seeded into 96-well plates at the above-determined seeding density allowing for log phase growth. After 4 hours cells were dosed concurrently with
Non-linear MEA (Median Effect Analysis): The combination interaction between 2 active agents, each with well defined IC50 monotherapy dose responses was assessed using equal inhibitory effect ratios of the two agents (IC60, IC50, IC40, IC30, IC20, IC10). A combination index (CI)<0.85 indicates a synergistic interaction, CI 0.85-1.2 additivity and a CI>1.2 antagonism.
That is a fixed dose of the partially active agent (in MTS assays) was applied across the full dose response of the active agent. Relative potency is defined as the ratio of the combination IC50 to the monotherapy IC50.

NCI-H23 cell line = assay: 96-hour MTS viable cell number assay, NCI-H23 cell line (monotherapy and combination); conditions: for IC50: Homo sapiens, NCI-H23, 96 h, read-out: IC50 monotherapy (Geomean)
Description: (§5) The NCI-H727, Calu-6, NCI-H2291, NCI-H23, A549 and NCI-H460 cell lines were routinely cultured and assayed in RPMI (phenol red free)+10% Foetal Calf Serum (FCS)+1% glutamine.
(§6) MTS viable cell number assays were carried out to determine seeding densities required for 96 hours of exponential growth. Cells were seeded into 96-well plates at their pre-determined seeding density allowing for log phase growth. […] Following incubation with compound for 96-hours viable cell number was determined using an MTS viable cell number (Promega™) endpoint.

Calu-6 cell line = assay: 96-hour MTS viable cell number assay, Calu-6 cell line (monotherapy and combination); conditions: Homo sapiens, Calu-6, 96 h, read-out: IC50 monotherapy (Geomean)
Description: as §5, §6

Calu-6 xenografts = assay: Calu-6 tumour xenograft growth in nude mice; assay type: in vivo
Description: (§1) LoVo cells were grown in DMEM (Gibco) 10% FCS 1% Glutamine medium and HCT116 cells were grown in McCoys 5A 10% FCS 1% Glutamine, A549a and CaLu-6 cells were grown in RPMI1640 10% FCS 1% Glutamine. […] cells were implanted into the flank of nude mice (LoVo no matrigel, HCT-116, Calu-6 and A549a plus 50% matrigel).
(§2) When mean tumour size reached approximately 0.2 cm^3, the mice were randomized into control and treatment groups. The treatment groups received either 25 or 50 mg/kg AZD6244 (vehicle: HPMC/Tween milled overnight), or 20 mg/kg Compound A (vehicle 10% DMSO, 90% propylene glycol) by oral gavage, Rapamycin was given 4 mg/kg once weekly (10% DMSO-10% Cremaphor-10% Ethanol-70% water for injection. When administered in combination, Compound A was given 2 hours after the oral dose of the other compound. The control group received vehicle (10% DMSO 90% propylene glycol) alone, once daily by oral gavage.
(§3) Tumour volumes (measured by caliper), animal body weight and tumour condition were recorded twice weekly for the duration of the study. Mice were sacrificed by CO2 euthanasia. The tumour volume was calculated (taking length to be the longest diameter across the tumour and width to be the corresponding perpendicular diameter using the formula: (length×width)×√(length×width)×(π/6). Growth inhibition from the start of treatment was assessed by comparison of the differences in tumour volume between control and treated groups. Because the variance in mean tumour volume data increases proportionally with volume (and is therefore disproportionate between groups), data were log-transformed to remove any size dependency before statistical evaluation.
(§4) Statistical significance was evaluated using a one-tailed, two-sample t test. To analyze the data from the combination study, the statistical tool SigmaStat has been used. A two-way ANOVA test was performed using the factors concentration of drug A and concentration of drug B. The data analyzed was Log (final tumour volume)-Log (initial tumour volume) calculated for each individual group at the end of the study. […]

NCI-H727 cell line = assay: 96-hour MTS viable cell number assay, NCI-H727 cell line (monotherapy and combination); conditions: Homo sapiens, NCI-H727, 96 h, read-out: IC50 monotherapy (Geomean)
Description: as §5, §6

NCI-H2291 cell line = assay: 96-hour MTS viable cell number assay, NCI-H2291 cell line (monotherapy and combination); conditions: for IC50: Homo sapiens, NCI-H2291, 96 h, read-out: IC50 monotherapy (Geomean)
Description: as §5, §6

A549a xenografts = assay: A549a tumour xenograft growth in nude mice; assay type: in vivo
Description: as §1, §2, §3, §4

NCI-H460 cell line = assay: 96-hour MTS viable cell number assay, NCI-H460 cell line (monotherapy and combination); conditions: for IC50: Homo sapiens, NCI-H460, 96 h, read-out: IC50 monotherapy (Geomean)
Description: as §5, §6

HCT-116 xenografts = assay: HCT-116 tumour xenograft growth in nude mice; assay type: in vivo
Description: as §1
When mean tumour size reached approximately 0.2 cm^3, the mice were randomized into control and treatment groups. […]
as §3, with “Mice were sacrificed by CO2 euthanasia.” left out
Statistical significance was evaluated using a one-tailed, two-sample t test. […]

pERK 1/2(Thr202/Tyr204) = assay: pharmacodynamic effect of AZD6244 against pERK 1/2; assay type: cell-based
A549 cell line = assay: 96-hour MTS viable cell number assay, A549 cell line (monotherapy and combination); conditions: for IC50: Homo sapiens, A549, 96 h, read-out: IC50 monotherapy (Geomean)
Description: as §5, §6

LoVo xenografts = assay: LoVo tumour xenograft growth in nude mice; assay type: in vivo
Description: as §1, §2, §3
Statistical significance was evaluated using a one-tailed, two-sample t test. To analyze the data from the combination study, the statistical tool SigmaStat has been used. A two-way ANOVA test was performed using the factors concentration of drug A and concentration of drug B. The data analyzed was Log (final tumour volume)-Log (initial tumour volume) calculated for each individual group at the end of the study. This tool is used to assess whether there is a main effect of drug A, a main effect of drug B plus a significant interaction between the two compounds A and B (eg. one compound influences the effect of the other compound) which may be interpreted as antagonism, additivity or synergism.

[1] = 20 mg/kg Compound A, oral gavage

SMILES	IC50 (A2058 cell line) [nM]	IC50 (NCI-H23 cell line) [nM]	IC50 (Calu-6 cell line) [nM]	IC50 (NCI-H727 cell line) [nM]	IC50 (NCI-H2291 cell line) [nM]	IC50 (NCI-H460 cell line) [nM]	IC50 (A549 cell line) [nM]	also measured
Cc1cc(C(=O)NOCCO)c(Nc2ccc(I)cc2F)n(C)c1=O [2-(2-fluoro-4-iodophenylamino)-N-(2-hydroxyethoxy)-1,5-dimethyl-6-oxo-1,6-dihydropyridine-3-carboxamide]	25							
Cn1cnc2c(F)c(Nc3ccc(Br)cc3Cl)c(C(=O)NOCCO)cc21 [AZD6244]	526	1840	257	36	704	32400	12400	reduction in geometric mean delta tumour volume compared with the vehicle treated control (Calu-6 xenografts; 50 mg/kg once daily AZD6244): 93.2%; reduction in geometric mean delta tumour volume compared with the vehicle treated control (A549a xenografts; 25 mg/kg once daily AZD6244): 53.4%; reduction in geometric mean delta tumour volume compared with the vehicle control (HCT-116 xenografts; 25 mg/kg AZD6244, oral gavage): 59%; ED90, pharmacodynamic effect against pERK 1/2(Thr202/Tyr204) (pERK 1/2(Thr202/Tyr204)): 333 nM; ED95, pharmacodynamic effect against pERK 1/2(Thr202/Tyr204) (pERK 1/2(Thr202/Tyr204)): 1000 nM; EC50 (pERK 1/2(Thr202/Tyr204); read-out: ED50, pharmacodynamic effect against pERK 1/2(Thr202/Tyr204)): 20 nM; reduction in geometric mean delta tumour volume compared with the vehicle treated control (LoVo xenografts; 25 mg/kg twice daily AZD6244): 38.7%; reduction in geometric mean delta tumour volume compared with the vehicle control (LoVo xenografts; 50 mg/kg AZD6244, oral gavage): 43%
COc1ccc(-c2ccc3c(N4CCOC[C@@H]4C)nc(N4CCOC[C@@H]4C)nc3n2)cc1CO [Compound A, [5-[2,4-bis[(3S)-3-methylmorpholin-4-yl]pyrido[5,6-e]pyrimidin-7-yl]-2-methoxyphenyl]methanol]	46	30	50	68	23	26	37	reduction in geometric mean delta tumour volume compared with the vehicle treated control (Calu-6 xenografts; 20 mg/kg once daily Compound A): 44.9%; reduction in geometric mean delta tumour volume compared with the vehicle treated control (A549a xenografts; 20 mg/kg once daily Compound A): 94.1%; reduction in geometric mean delta tumour volume compared with the vehicle control (HCT-116 xenografts; [1]): 24%; reduction in geometric mean delta tumour volume compared with the vehicle control (LoVo xenografts; [1]): 66%
CO[C@H]1C[C@@H]2CC[C@@H](C)[C@@](O)(O2)C(=O)C(=O)N2CCCC[C@H]2C(=O)O[C@H]([C@H](C)C[C@@H]2CC[C@@H](O)[C@H](OC)C2)CC(=O)[C@H](C)/C=C(\C)[C@@H](O)[C@@H](OC)C(=O)[C@H](C)C[C@H](C)/C=C/C=C/C=C/1C [Rapamycin]	> 10000	> 10000	> 10000	> 10000	> 10000	> 10000	> 10000	growth inhibitory effect reached (NCI-H23 cell line; NCI-H23, regardless of the presence of AZD6244): < 50%; reduction in geometric mean delta tumour volume compared with the vehicle treated control (Calu-6 xenografts; 4 mg/kg once weekly Rapamycin): 37.2%; growth inhibitory effect reached (NCI-H2291 cell line; NCI-H2291, regardless of the presence of AZD6244): < 50%; reduction in geometric mean delta tumour volume compared with the vehicle treated control (A549a xenografts; 4 mg/kg once weekly Rapamycin): 69.5%; growth inhibitory effect reached (NCI-H460 cell line; NCI-H460, regardless of the presence of AZD6244): < 50%; growth inhibitory effect reached (A549 cell line; A549, regardless of the presence of AZD6244): < 50%; reduction in geometric mean delta tumour volume compared with the vehicle treated control (LoVo xenografts; 4 mg/kg Rapamycin): 38.2%
